# Source: patent EP0745595A1, “3-(3-Aryloxyphenyl)-1-(substituted methyl)-s-triazine-2,4,6-oxo or thiotrione herbicidal agents” (American Cyanamid Company, priority 1995, dated 1996)
# Key:
# Type in all cases: in vivo
# IPOMOEA SPP. = assay: Postemergence herbicidal evaluation, IPOSS (Morningglory spp.)
# How it was run: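 In this greenhouse postemergence herbicide test on Ipomoea spp. (morningglory), compounds in 50/50 acetone/water with 0.5% TWEEN®20 were sprayed at 40 psi onto seedlings about two weeks old grown in jiffy flats. After four to five weeks, injury was scored on a 0-9 scale covering stand, vigor, malformation, size, chlorosis and overall appearance versus control, with repeat tests averaged.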
# CASSIA OBTUSIFOLIA, L. = assay: Postemergence herbicidal evaluation, CASOB (Sicklepod); design: key to CASOB rating / Herbicidal effect rating, CASOB / CASOB: 0-9 visual rating scale vs untreated control
# How it was run: (§1)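 Spray: acetone/water 50/50 + 0.5% TWEEN 20; rate ~0.125–0.500 kg/ha; nozzle 40 psi; ~2-wk seedlings. Read: visual 0–9 rating at 4–5 wk post-treatment vs control; replicate tests averaged.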
# [1] = tested on: ABUTILON THEOPHRASTI, MEDIC.; assay: Postemergence herbicidal evaluation, ABUTH (Velvetleaf)
# How it was run: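 This postemergence herbicide test used two-week-old velvetleaf seedlings grown in jiffy flats. Each compound was sprayed at 40 psi as a dispersion in 50/50 acetone/water with 0.5% TWEEN®20 surfactant. Plants then received routine greenhouse care. After four to five weeks, injury was scored visually on a 0-9 scale against a control, and replicate tests were averaged.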
# CHENOPODIUM ALBUM, L. = assay: Preemergence herbicidal evaluation, CHEAL (Lambsquarters, Common); settings: for CHEAL herbicidal rating: rated four to five weeks after treatment
# How it was run: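 Preemergence, greenhouse: seed + potting soil sown on ~1 inch soil in cups; aqueous acetone spray, ~0.125–0.50 kg/ha equivalent; rated 0-9 vs control at 4–5 wk.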
# [2] = tested on: TRITICUM AESTIVUM, CV. APOLLO; assay: Postemergence herbicidal evaluation, TRZAWO (Wheat, Winter, CV. APOLLO);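 note: higher means more injury with 8 approaching complete kill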
# How it was run: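 This greenhouse postemergence test applied compounds to roughly two-week-old wheat seedlings grown in jiffy flats. The spray solution was 50/50 acetone/water with 0.5% TWEEN®20, a polyoxyethylene sorbitan monolaurate, sprayed from a nozzle run at 40 psi. After four to five weeks of standard greenhouse care, injury was scored from 0 to 9 by comparing stand, vigor, malformation, size, chlorosis and overall appearance with a control. Multiple tests were averaged.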
# [3] = tested on: ORYZA SATIVA, L. TEBONNET; assay: Rice tolerance to post-transplant applications under flooded paddy conditions, ORYSAT (Rice, Tebonnet); settings: for Herbicidal effect rating, ORYSAT: post-transplant rice, 3-4 weeks after treatment; for ORYSAT: post-transplanted rice
# How it was run: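 Visual 0-9 rating against untreated control (stand, vigor, malformation, size, chlorosis, overall appearance), taken 3-4 weeks after treatment. Flooded silt loam, water at 1.5-3 cm; two 10-day-old seedlings per pot; compound applied to flooded soil surface 3 days post-transplant at ~0.5-0.063 kg/ha.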
# [4] = tested on: AMBROSIA ARTEMISIIFOLIA, L.; assay: Postemergence herbicidal evaluation, AMBEL (Ragweed, Common);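 note: higher means more injury with 8 approaching complete kill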
# How it was run: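 Postemergence herbicidal activity on AMBEL (common ragweed) was assessed on two-week-old seedlings grown in jiffy flats. Treatment solutions of 50/50 acetone/water with 0.5% TWEEN®20 surfactant were sprayed at 40 psi. After four to five weeks in the greenhouse, plants were scored 0-9 against a control for stand, vigor, malformation, size, chlorosis and overall appearance, with multiple tests averaged.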
# GALIUM APARINE = assay: Postemergence herbicidal evaluation, GALAP (Galium); design: key to GALAP rating / Herbicidal effect rating, GALAP / GALAP: 0-9 visual rating scale vs untreated control;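 note: higher means more injury with 8 approaching complete kill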
# How it was run: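 In this postemergence greenhouse test, two-week-old Galium aparine seedlings grown in jiffy flats received a 40 psi spray of compound in acetone/water (50/50) with 0.5% TWEEN®20 surfactant. After four to five weeks, stand, vigor, malformation, size, chlorosis and overall appearance were compared with untreated controls on a 0-9 scale, averaging multiple tests.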
# ZEA MAYS L. = assay: Postemergence herbicidal evaluation, ZEAMX (Corn, Field);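 note: higher means more injury with 8 approaching complete kill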
# How it was run: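 This greenhouse postemergence test treated corn plants about two weeks old. Compounds in a 50/50 acetone/water mixture with 0.5% TWEEN®20 were applied through a spray nozzle at 40 psi. After four to five weeks, injury was scored 0-9 against an untreated control, judging stand, vigor, malformation, size, chlorosis and overall appearance. Repeated tests were averaged.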
# [5] = tested on: SETARIA VIRIDIS, (L) BEAU; assay: Postemergence herbicidal evaluation, SETVI (Foxtail, Green); design: key to SETVI rating / Herbicidal effect rating, SETVI / SETVI: 0-9 visual rating scale vs untreated control
# How it was run: as §1
# [6] = tested on: ECHINOCHLOA CRUS-GALLI, (L) BEAU; assay: Postemergence herbicidal evaluation, ECHCG (Barnyardgrass); design: key to ECHCG rating / Herbicidal effect rating, ECHCG / ECHCG: 0-9 visual rating scale vs untreated control
# How it was run: as §1
structure (smiles),measurement,setting,value
"COC(=O)Cn1c(=O)n(C)c(=O)n(-c2cc(Oc3ccc(C(F)(F)F)cc3Cl)ccc2Cl)c1=O [Compound 39, Methyl 3-{[2-chloro-5-(2-chloro-α,α,α-trifluoro-p-tolyl)oxy]phenyl}tetrahydro-5-methyl-2,4,6-trioxo-s-triazine-1(2H)-acetate]",IPOSS,IPOMOEA SPP.; Rate 0.016 kg/ha,5.5
same,IPOSS,IPOMOEA SPP.; Rate 0.032 kg/ha,7.0
same,IPOSS,IPOMOEA SPP.; Rate 0.063 kg/ha,9.0
same,IPOSS,IPOMOEA SPP.; Rate 0.125 kg/ha,9.0
same,IPOSS rating,IPOMOEA SPP.; Rate 0.125 kg/ha,9.0
same,IPOSS,IPOMOEA SPP.; Rate 0.250 kg/ha,9.0
same,IPOSS rating,IPOMOEA SPP.; Rate 0.250 kg/ha,9.0
same,IPOSS,IPOMOEA SPP.; Rate 0.500 kg/ha,9.0
same,IPOSS rating,IPOMOEA SPP.; Rate 0.500 kg/ha,9.0
same,CASOB,"CASSIA OBTUSIFOLIA, L.; Rate 0.016 kg/ha",6.0
same,CASOB,"CASSIA OBTUSIFOLIA, L.; Rate 0.032 kg/ha",9.0
same,CASOB,"CASSIA OBTUSIFOLIA, L.; Rate 0.063 kg/ha",9.0
same,CASOB,"CASSIA OBTUSIFOLIA, L.; Rate 0.125 kg/ha",9.0
same,CASOB rating,"CASSIA OBTUSIFOLIA, L.; Rate 0.125 kg/ha",9.0
same,CASOB,"CASSIA OBTUSIFOLIA, L.; Rate 0.250 kg/ha",9.0
same,CASOB rating,"CASSIA OBTUSIFOLIA, L.; Rate 0.250 kg/ha",9.0
same,CASOB,"CASSIA OBTUSIFOLIA, L.; Rate 0.500 kg/ha",9.0
same,CASOB rating,"CASSIA OBTUSIFOLIA, L.; Rate 0.500 kg/ha",9.0
same,ABUTH,[1]; Rate 0.016 kg/ha,7.0
same,ABUTH,[1]; Rate 0.032 kg/ha,8.5
same,ABUTH,[1]; Rate 0.063 kg/ha,9.0
same,ABUTH,[1]; Rate 0.125 kg/ha,9.0
same,ABUTH rating,[1]; Rate 0.125 kg/ha,9.0
same,ABUTH,[1]; Rate 0.250 kg/ha,9.0
same,ABUTH rating,[1]; Rate 0.250 kg/ha,9.0
same,ABUTH,[1]; Rate 0.500 kg/ha,9.0
same,ABUTH rating,[1]; Rate 0.500 kg/ha,9.0
same,CHEAL,"CHENOPODIUM ALBUM, L.; Rate 0.063 kg/ha",9.0
same,CHEAL,"CHENOPODIUM ALBUM, L.; Rate 0.125 kg/ha",9.0
same,CHEAL herbicidal rating,"CHENOPODIUM ALBUM, L.; Rate 0.125 kg/ha",9.0
same,CHEAL,"CHENOPODIUM ALBUM, L.; Rate 0.250 kg/ha",9.0
same,CHEAL herbicidal rating,"CHENOPODIUM ALBUM, L.; Rate 0.250 kg/ha",9.0
same,CHEAL,"CHENOPODIUM ALBUM, L.; Rate 0.500 kg/ha",9.0
same,CHEAL herbicidal rating,"CHENOPODIUM ALBUM, L.; Rate 0.500 kg/ha",9.0
same,TRZAWO,[2]; Rate 0.016 kg/ha,2.8
same,TRZAWO,[2]; Rate 0.032 kg/ha,3.8
same,TRZAWO,[2]; Rate 0.063 kg/ha,4.5
same,TRZAWO,[2]; Rate 0.125 kg/ha,4.8
same,TRZAWO,[2]; Rate 0.250 kg/ha,6.0
same,TRZAWO,[2]; Rate 0.500 kg/ha,5.5
same,"Herbicidal effect rating, ORYSAT",[3]; 0.063 kg/ha,2.5
same,"Herbicidal effect rating, ORYSAT",[3]; 0.125 kg/ha,3.5
same,"Herbicidal effect rating, ORYSAT",[3]; 0.250 kg/ha,5.0
same,"Herbicidal effect rating, ORYSAT",[3]; 0.500 kg/ha,5.3
same,ORYSAT,[3]; Rate 0.031 kg/ha,1.8
same,ORYSAT,[3]; Rate 0.063 kg/ha,2.5
same,ORYSAT,[3]; Rate 0.125 kg/ha,3.5
same,ORYSAT,[3]; Rate 0.250 kg/ha,5.0
same,AMBEL,[4]; Rate 0.016 kg/ha,4.5
same,AMBEL,[4]; Rate 0.032 kg/ha,6.5
same,AMBEL,[4]; Rate 0.063 kg/ha,7.5
same,AMBEL,[4]; Rate 0.125 kg/ha,8.5
same,AMBEL,[4]; Rate 0.250 kg/ha,9.0
same,AMBEL,[4]; Rate 0.500 kg/ha,9.0
same,GALAP,GALIUM APARINE; Rate 0.016 kg/ha,7.5
same,GALAP,GALIUM APARINE; Rate 0.032 kg/ha,8.5
same,GALAP,GALIUM APARINE; Rate 0.063 kg/ha,7.0
same,GALAP,GALIUM APARINE; Rate 0.125 kg/ha,8.0
same,GALAP,GALIUM APARINE; Rate 0.250 kg/ha,9.0
same,GALAP,GALIUM APARINE; Rate 0.500 kg/ha,9.0
same,ZEAMX,ZEA MAYS L.; Rate 0.016 kg/ha,3.3
same,ZEAMX,ZEA MAYS L.; Rate 0.032 kg/ha,4.3
same,ZEAMX,ZEA MAYS L.; Rate 0.063 kg/ha,4.8
same,ZEAMX,ZEA MAYS L.; Rate 0.125 kg/ha,6.5
same,ZEAMX,ZEA MAYS L.; Rate 0.250 kg/ha,8.0
same,ZEAMX,ZEA MAYS L.; Rate 0.500 kg/ha,8.5
same,SETVI,[5]; Rate 0.016 kg/ha,2.5
same,SETVI,[5]; Rate 0.032 kg/ha,4.5
same,SETVI,[5]; Rate 0.063 kg/ha,3.5
same,SETVI,[5]; Rate 0.125 kg/ha,4.5
same,SETVI,[5]; Rate 0.250 kg/ha,8.0
same,SETVI,[5]; Rate 0.500 kg/ha,9.0
same,ECHCG,[6]; Rate 0.016 kg/ha,1.5
same,ECHCG,[6]; Rate 0.032 kg/ha,3.0
same,ECHCG,[6]; Rate 0.063 kg/ha,1.0
same,ECHCG,[6]; Rate 0.125 kg/ha,4.5
same,ECHCG,[6]; Rate 0.250 kg/ha,7.5
same,ECHCG,[6]; Rate 0.500 kg/ha,8.0
"Cn1c(=O)[nH]c(=O)n(-c2cccc(Oc3ccc(C(F)(F)F)cc3Cl)c2)c1=O [E, reference compound]",IPOSS,IPOMOEA SPP.; Rate 0.063 kg/ha,5.0
same,IPOSS,IPOMOEA SPP.; Rate 0.125 kg/ha,5.0
same,IPOSS,IPOMOEA SPP.; Rate 0.250 kg/ha,5.0
same,IPOSS,IPOMOEA SPP.; Rate 0.500 kg/ha,6.0
same,CASOB,"CASSIA OBTUSIFOLIA, L.; Rate 0.063 kg/ha",2.0
same,CASOB,"CASSIA OBTUSIFOLIA, L.; Rate 0.125 kg/ha",3.0
same,CASOB,"CASSIA OBTUSIFOLIA, L.; Rate 0.250 kg/ha",5.0
same,CASOB,"CASSIA OBTUSIFOLIA, L.; Rate 0.500 kg/ha",2.0
same,ABUTH,[1]; Rate 0.063 kg/ha,4.0
same,ABUTH,[1]; Rate 0.125 kg/ha,5.0
same,ABUTH,[1]; Rate 0.250 kg/ha,5.0
same,ABUTH,[1]; Rate 0.500 kg/ha,6.0
same,TRZAWO,[2]; Rate 0.063 kg/ha,1.0
same,TRZAWO,[2]; Rate 0.125 kg/ha,1.0
same,TRZAWO,[2]; Rate 0.250 kg/ha,1.0
same,TRZAWO,[2]; Rate 0.500 kg/ha,1.5
same,ORYSAT,[3]; Rate 0.250 kg/ha,0.0
same,ORYSAT,[3]; Rate 0.500 kg/ha,0.0
same,ORYSAT,[3]; Rate 1.000 kg/ha,0.0
same,AMBEL,[4]; Rate 0.063 kg/ha,2.0
same,AMBEL,[4]; Rate 0.125 kg/ha,2.0
same,AMBEL,[4]; Rate 0.250 kg/ha,4.0
same,AMBEL,[4]; Rate 0.500 kg/ha,5.0
same,GALAP,GALIUM APARINE; Rate 0.063 kg/ha,3.0
same,GALAP,GALIUM APARINE; Rate 0.125 kg/ha,4.0
same,GALAP,GALIUM APARINE; Rate 0.250 kg/ha,5.0
same,GALAP,GALIUM APARINE; Rate 0.500 kg/ha,2.5
same,ZEAMX,ZEA MAYS L.; Rate 0.063 kg/ha,1.5
same,ZEAMX,ZEA MAYS L.; Rate 0.125 kg/ha,1.5
same,ZEAMX,ZEA MAYS L.; Rate 0.250 kg/ha,1.5
same,ZEAMX,ZEA MAYS L.; Rate 0.500 kg/ha,2.5
same,SETVI,[5]; Rate 0.063 kg/ha,0.0
same,SETVI,[5]; Rate 0.125 kg/ha,0.0
same,SETVI,[5]; Rate 0.250 kg/ha,1.0
same,SETVI,[5]; Rate 0.500 kg/ha,2.0
same,ECHCG,[6]; Rate 0.063 kg/ha,0.0
same,ECHCG,[6]; Rate 0.125 kg/ha,0.0
same,ECHCG,[6]; Rate 0.250 kg/ha,1.0
same,ECHCG,[6]; Rate 0.500 kg/ha,3.0
